The text below walks through data of PubChem BioAssay AID449764 (Southern Research Specialized Biocontainment Screening …, 2010).

The assay concerns Mycobacterium tuberculosis H37Rv growth inhibition, no glycerol. Description: Confirmatory growth inhibition assay, Mycobacterium tuberculosis H37Rv, absence of glycerol (AID 449764).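 On all read-outs here: growth read after 7 days of incubation.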 The note with it: for IC90: measured here: IC90 growth inhibition.

Broadly, the IC50 is the concentration needed to halve the response being measured. The IC90 is the concentration at which the effect reaches the 90% level. For the compound `O=C(CCl)Nc1nccs1`, the IC50 is 4.87 µM and the IC90 stood at 9.14 µM.

Regarding `CCCCN(CCCC)CCC(O)c1cc2c(Cl)cc(Cl)cc2c2cc(C(F)(F)F)ccc12` (stereo unspecified), the IC50 is 17.6 µM and the 90% effect concentration (IC90) worked out at 23.4 µM.

As to `CCN(CC)CCNC(=O)c1ccc(NC(=O)c2cn(-c3ccccc3)nc2-c2cccs2)cc1`, the IC50 was 24.4 µM and the IC90 came out at 27.6 µM.

Regarding `COC(=O)CSc1nnc([C@H](CC(C)C)NC(=O)OC(C)(C)C)o1`, the IC50 is 21.9 µM and the IC90 came out at 29.9 µM.

As to `O=c1c2cc(Br)cc(Br)c2oc2nc3n(c(=O)c12)CCCS3`, the IC50 is 10.4 µM and the IC90 was determined as 23.3 µM.

Consider `CCN1c2ccccc2N(C)C1(C)c1ccccc1` (stereo unspecified), for which the IC50 was 8.65 µM and the IC90 stood at 10.5 µM.

With `COc1ccc(/C=C/CN2CCC(CO)(Cc3ccccc3Cl)CC2)cc1`, the IC50 was 24.3 µM and the IC90 came out at 27.5 µM.

Consider `COc1cc(/C=C/c2cc[n+](C)cc2)ccc1OCC(=O)Nc1ccc(Cl)c(Cl)c1`, for which the IC50 is 25 µM and the IC90 is 28 µM.

For the compound `Cc1cc(C)nc(Sc2ncnc(N)c2[N+](=O)[O-])n1`, the IC50 is 19.3 µM and the IC90 was found to be 25.5 µM.

For the compound `COC(=O)N/N=C/c1c[n+]([O-])c2ccccc2[n+]1[O-]`, the IC50 is 18.7 µM and the IC90 was 27.5 µM.

As for `COc1ccc(-c2cn3cc([N+](=O)[O-])ccc3n2)cc1OC`, the IC50 was 46.9 µM and the IC90 was above 50 µM.

Turning to `CNC(=S)Nc1ccc(N2CCN(c3ccc(C(F)(F)F)cn3)CC2)nc1`, the IC50 was 9.42 µM and the IC90 is above 100 µM.

Consider `CC1Cc2ccccc2N1C(=S)NC(=O)c1ccc(Cl)cc1Cl` (stereo unspecified), for which the IC50 is 17 µM and the IC90 was above 100 µM.

Regarding `CC(=O)O[C@H]1C[C@@]2(C)[C@@H](C[C@@H](O)[C@H]3[C@@]4(C)CC[C@@H](O)[C@@H](C)[C@@H]4CC[C@@]32C)/C1=C(\CCC=C(C)C)C(=O)O`, the IC50 is 2.94 µM and the IC90 amounted to 6.55 µM.

As for `COc1ccc(C(=O)C2CCCN(C3CSCCSC3)C2)c(C)c1` (stereo unspecified), the IC50 is 33.5 µM and the IC90 is 44.9 µM.

`CC(Oc1cc2oc(=O)c3c(c2cc1Cl)CCCC3)C(=O)NCc1ccccn1` (stereo unspecified) displayed an IC90 above 100 µM.

Take `CC12CCC(=O)N1C(C(=O)Nc1ccc(SC(F)F)cc1)CS2` (stereo unspecified): the IC50 was 47.8 µM and the IC90 is above 100 µM.

For the compound `CCCn1nc(C(=O)NNC(=O)c2ccc(C)c(C)c2)c2ccccc2c1=O`, the IC50 was 24.6 µM and the IC90 was determined as 27.9 µM.

In the case of `CCC1=C(OC(=O)N(CC)CC)N2C(=O)OC(=NCCc3c[nH]c4ccccc34)[C@]2(Cc2ccccc2)[C@H]2C1=CC[C@H]1C(=O)NC(=O)[C@H]12`, the IC50 is 30.6 µM and the IC90 was determined as 45.7 µM.

For `COc1ccc(-c2ccc(-c3noc(C(C)C)n3)c(OC)n2)cc1`, the IC50 is 40.3 µM and the IC90 is 54.6 µM.

Turning to `O=c1c(O)c(-c2cccs2)oc2ccccc12`, the IC50 is 34.4 µM and the IC90 was above 100 µM.

Consider `O=C(NN=C1c2ccccc2-c2ccccc21)c1cccc(Br)c1`, for which the IC50 is 42.2 µM and the IC90 is above 100 µM.

On to `O=C(NCCc1ccc(Cl)cc1)c1ccc(CS(=O)Cc2ccc(Cl)cc2)o1` (stereo unspecified), for which the IC50 is 45.2 µM and the IC90 was 52.1 µM.

With `C/C(CCc1ccc2c(c1)OCO2)=N\NC(=S)NC(C)C`, the IC50 was 98.4 µM and the IC90 was above 100 µM.

Consider `Cc1c(C(=O)Oc2cccc3ccccc23)cnn1-c1ccccc1`, for which the IC50 is 22.8 µM and the IC90 came to 26.1 µM.

Regarding `Cc1sc2ncnc(N3CCC(C(=O)NCC(=O)Nc4ccc(F)c(F)c4)CC3)c2c1C`, the IC50 is 46.7 µM and the IC90 is 53.1 µM.

In the case of `O=c1oc2ccccc2c(O)c1/C=C1\C=Nc2ccccc21`, the IC50 is 38.8 µM and the IC90 came out at 64.6 µM.

Consider `COc1cc(NC(=O)c2cccs2)c(C(=O)OCC(=O)NCc2ccco2)cc1OC`, for which the IC50 was 34.9 µM and the IC90 is above 100 µM.

Consider `C(=C\c1nccc2c1[nH]c1ccccc12)/c1ccccc1`, for which the IC50 was 31.2 µM and the IC90 was 42.7 µM.

As to `Cc1ccc(/C=C2\C(=O)Nc3ccccc32)o1`, the IC50 was 4.9 µM and the IC90 was determined as 6.56 µM.

Take `CCC1C(c2ccccc2)N(C)C(c2ccccc2)CC1(O)c1ccccc1` (stereo unspecified): the IC50 is 23.9 µM and the IC90 is 27.6 µM.

`COc1cccc(CC2(CO)CCCN(Cc3[nH]c4ccc(C)cc4c3C)C2)c1` (stereo unspecified): the IC50 is 40.8 µM and the IC90 amounted to 55.8 µM.

On to `O=[N+]([O-])c1ccc(N2CCCCC2)s1`, for which the IC50 is 13.7 µM and the IC90 came out at 18.5 µM.

In the case of `CCOC(=O)CNc1ccc(C(=O)OCC)cc1[N+](=O)[O-]`, the IC50 is 18.1 µM and the IC90 is above 100 µM.

Consider `c1ccc2nc(-c3ccc(-n4ccnc4)cc3)ccc2c1`, for which the IC50 was 31 µM and the IC90 turned out to be 42.5 µM.

Regarding `CCCc1cc(NC(=O)CCl)n(-c2ccccc2)n1`, the IC50 was 2.93 µM and the IC90 came out at 3.32 µM.

With `COc1ccc(CNc2ncnc3c2[nH]c2cc(OC)c(OC)cc23)cc1`, the IC50 was 80.7 µM and the IC90 was determined as 89.5 µM.

As for `Cc1ccc(C(=O)n2c(N)nc3ccccc32)cc1`, the IC50 was 89.9 µM and the IC90 is above 100 µM.

Take `COc1cc(/C=C2\C(=O)N(c3ccc(S(N)(=O)=O)cc3)N=C2C)ccc1OC(=O)c1ccco1`: the IC50 was 22.6 µM and the IC90 turned out to be 26.1 µM.

Take `CCOC(=O)COc1ccc(S(=O)(=O)NCCC2=CCCCC2)cc1`: the IC50 is 22.7 µM and the IC90 is 25.9 µM.

Turning to `CCOC(=O)N1CCC(n2c(SCC(=O)OCc3ccccc3)nc3ccsc3c2=O)CC1`, the IC50 is 61.6 µM and the IC90 is above 100 µM.

For the compound `COc1ccc(NC(=O)CSC2CCCCC2)cc1`, the IC50 is 76.3 µM and the IC90 was above 100 µM.

`Cc1[nH][nH]c(=O)c1C(c1ccc(-c2ccc(Cl)c(Cl)c2)o1)c1c(C)[nH][nH]c1=O`: the IC50 was 82.1 µM and the IC90 was above 100 µM.

As to `COc1cccc(-n2nnc3c(=O)n(CC(=O)N4CCC(Cc5ccccc5)CC4)cnc32)c1`, the IC50 is 51.2 µM and the IC90 is above 100 µM.

As to `COC(=O)CC(=O)N1CCN(c2ccc(Cl)c(Cl)c2)CC1`, the half-maximal inhibitory concentration (IC50) is 44.4 µM and the IC90 came to 74.8 µM.

Take `CCNCC(=O)N1c2ccccc2CCc2ccc(NC(=O)OC(C)C)cc21`: the IC50 was 53.7 µM and the IC90 is 77 µM.

For `COc1ccc(-n2nc3c(c2NC(=O)CCl)CSC3)cc1`, the IC50 is 6.92 µM and the concentration for an effect of 90% (IC90) is 12.5 µM.

Regarding `C=CCOc1ccccc1CN(C(=O)CCl)c1ccc2c(c1)OCO2`, the IC50 was 2.7 µM and the IC90 is 3.72 µM.

As for `CCCCCCCCCCC[N+](C)(C)CC/C=C1/c2ccccc2Sc2ccc(Cl)cc21`, the IC50 was 8.03 µM and the IC90 was found to be 9.28 µM.

In the case of `CCn1c2ccccc2c2cc(CNCc3ccc(OC)cc3OC)ccc21`, the IC50 was 12.2 µM and the IC90 amounted to 14 µM.

As to `COc1ccc(CCNc2nc(N3CCCCC3)nc(N3CCCCC3)n2)cc1OC`, the IC50 is 18 µM and the IC90 stood at 23.3 µM.

In the case of `Cc1cc(C2N=C(N)Nc3nc4ccccc4n32)c(C)n1-c1ccccc1Cl` (stereo unspecified), the IC50 was 17.3 µM and the IC90 turned out to be 21.4 µM.

In the case of `COC(=O)CN1C(c2ccc(Cl)cc2)=Nc2ccc(Cl)cc2C1c1ccccc1` (stereo unspecified), the IC50 was 23 µM and the IC90 was 24.8 µM.

Take `CC(C)C[C@H](NC(=O)c1nc[nH]c1C(=O)NC1CCN(C(=O)OC(C)(C)C)CC1)C(=O)OCc1ccccc1`: the IC50 is 21.8 µM and the IC90 stood at 29.6 µM.

On to `C[CH2][Hg][S]c1ccccc1C(=O)O`, for which the IC50 was 0.52 µM and the IC90 stood at 1.26 µM.

For `O=c1/c(=C\c2ccc(O)cc2)sc2n1C(c1ccccc1)C(c1ccccc1)=NN=2` (stereo unspecified), the concentration for half-maximal inhibition (IC50) is 41.1 µM and the IC90 was 66 µM.

In the case of `Cc1c(C(=O)Nc2nc3ccccc3[nH]2)oc2c(Cl)cccc12`, the IC50 is 80.4 µM and the IC90 was above 100 µM.

Regarding `Cc1ccccc1Nc1nc(N)nc(COC(=O)c2ccc([N+](=O)[O-])o2)n1`, the IC50 is 88.7 µM and the 90% effect concentration (IC90) was above 100 µM.

Consider `N#C/C(N=Nc1ccccc1O)=N\Nc1ccccc1O`, for which the IC50 is 2.25 µM and the IC90 was determined as 3.64 µM.

Turning to `COc1ccc(C(CCNCc2ccc(OC(C)C)cc2)C(C)C)cc1` (stereo unspecified), the IC50 was 23.8 µM and the IC90 amounted to 32.4 µM.

As for `CCCCCCC#Cc1ccc2c(c1)COc1c3ccccc3nn1-2`, the IC50 was 75.5 µM and the IC90 is above 100 µM.

For `Cc1cc(C)c2cc(C(=O)Nc3ccc(C)c(F)c3)[nH]c2c1`, the IC50 was 1.32 µM and the IC90 was determined as 1.91 µM.

As for `N#Cc1cccc(NC(=O)N2CCC(c3nc4c(nnn4Cc4cccc(Cl)c4)c(=O)[nH]3)CC2)c1`, the IC50 was 21.2 µM and the IC90 worked out at 23.3 µM.

For `O=c1cc(O)c2sc3nc(-c4cccnc4)cc(C(F)(F)F)c3c2[nH]1`, the IC50 was 39.8 µM and the IC90 was above 100 µM.

On to `CCCCCCCCNC(=O)CCNC(=O)c1ccc(C(C)(C)C)cc1`, for which the IC50 was 34.3 µM and the IC90 stood at 41.9 µM.

For the compound `Cc1cccc(OCc2n(CC(=O)OC3CC(C)CCC3C(C)C)c3ccccc3[n+]2C)c1` (stereo unspecified), the IC50 is 8.63 µM and the IC90 amounted to 10.4 µM.

With `CCOC(=O)CN[C@H]1CCC2C3CC=C4C[C@@H](O)CC[C@]4(C)C3CC[C@@]21C` (stereo partly specified), the IC50 was 3.53 µM and the IC90 is 14.3 µM.

Take `COc1ccc(CCNc2cc(-c3ccccc3)nc3ncnn23)cc1`: the IC50 was below 0.2 µM and the IC90 was 27.3 µM.

As to `Cc1cc(C)c2oc(-c3ccc(C)c(NC(=S)NC(=O)/C=C/c4ccco4)c3)nc2c1`, the IC50 was 77.5 µM and the IC90 was above 100 µM.

Take `C/C(=N\Nc1ccc([N+](=O)[O-])cc1)c1cccc(N)c1`: the IC50 is 61.2 µM and the IC90 was 88.9 µM.

As for `c1ccc2c(C3=NNC(=NC4CCCCC4)SC3)c[nH]c2c1`, the IC50 is 37.7 µM and the IC90 worked out at 45.4 µM.
